According to ChEMBL document CHEMBL3217702, “Oxadiazole isomers: all bioisosteres are not created equal” (Medchemcomm, 2012):
Values after ≈ are worked out from the molar mass of the structure shown.

Key:
[1] = Hexadecane-phosphate buffer distribution coefficient, log P of the compound at pH 7.4; assay type: physicochemical
[2] = Intrinsic clearance in rat hepatocytes measured per 10^6 cells; assay type: ADME, cell-based, Hepatocyte; details: read-out: CLH
[3] = Intrinsic clearance in human microsomes; assay type: ADME, Microsome
[4] = Permeability from apical to basolateral side in human Caco2 cells; assay type: ADME, cell-based; details: Caco-2, read-out: permeability
[5] = Permeability from basolateral to apical side in human Caco2 cells; assay type: ADME, cell-based; details: Caco-2, read-out: permeability
[6] = Hydrolytic stability of the compound at 10 uM at pH 4 at 65 degC after 18 hrs in presence of 2-methoxyethanol; assay type: physicochemical; details: buffer, pH 4, 18 h
[7] = Hydrolytic stability of the compound at 10 uM at pH 6 at 65 degC after 18 hrs in presence of 2-methoxyethanol; assay type: physicochemical; details: buffer, pH 6, 18 h
[8] = Hydrolytic stability of the compound at 10 uM at pH 8 at 65 degC after 18 hrs in presence of 2-methoxyethanol; assay type: physicochemical; details: buffer, pH 8, 18 h
[9] = Half life at 10 uM at pH 4 at 65 degC; assay type: physicochemical; details: buffer
[10] = Half life at 10 uM at pH 6 at 65 degC; assay type: physicochemical; details: buffer
[11] = Half life at 10 uM at pH 8 at 65 degC; assay type: physicochemical; details: buffer
[12] = Half life at 10 uM at pH 4 at 25 degC; assay type: physicochemical; details: buffer
[13] = Half life at 10 uM at pH 6 at 25 degC; assay type: physicochemical; details: buffer
[14] = Half life at 10 uM at pH 8 at 25 degC; assay type: physicochemical; details: buffer
[15] = physchem; details: octanol/aqueous phosphate buffer, pH 7.4
Description: Octanol-aqueous phosphate buffer distribution coefficient, log P of the compound at pH 7.4

[16] = Fraction unbound in human plasma; assay type: ADME, cell-free
[17] = Fraction unbound in mouse plasma; assay type: ADME, cell-free
[18] = Fraction unbound in rat plasma; assay type: ADME, cell-free
[19] = molecular target: Voltage-gated inwardly rectifying potassium channel KCNH2 (Homo sapiens, UniProt Q12809); assay: Inhibition of human ERG
Voltage-gated inwardly rectifying potassium channel KCNH2, sequence (Q12809 whole entry): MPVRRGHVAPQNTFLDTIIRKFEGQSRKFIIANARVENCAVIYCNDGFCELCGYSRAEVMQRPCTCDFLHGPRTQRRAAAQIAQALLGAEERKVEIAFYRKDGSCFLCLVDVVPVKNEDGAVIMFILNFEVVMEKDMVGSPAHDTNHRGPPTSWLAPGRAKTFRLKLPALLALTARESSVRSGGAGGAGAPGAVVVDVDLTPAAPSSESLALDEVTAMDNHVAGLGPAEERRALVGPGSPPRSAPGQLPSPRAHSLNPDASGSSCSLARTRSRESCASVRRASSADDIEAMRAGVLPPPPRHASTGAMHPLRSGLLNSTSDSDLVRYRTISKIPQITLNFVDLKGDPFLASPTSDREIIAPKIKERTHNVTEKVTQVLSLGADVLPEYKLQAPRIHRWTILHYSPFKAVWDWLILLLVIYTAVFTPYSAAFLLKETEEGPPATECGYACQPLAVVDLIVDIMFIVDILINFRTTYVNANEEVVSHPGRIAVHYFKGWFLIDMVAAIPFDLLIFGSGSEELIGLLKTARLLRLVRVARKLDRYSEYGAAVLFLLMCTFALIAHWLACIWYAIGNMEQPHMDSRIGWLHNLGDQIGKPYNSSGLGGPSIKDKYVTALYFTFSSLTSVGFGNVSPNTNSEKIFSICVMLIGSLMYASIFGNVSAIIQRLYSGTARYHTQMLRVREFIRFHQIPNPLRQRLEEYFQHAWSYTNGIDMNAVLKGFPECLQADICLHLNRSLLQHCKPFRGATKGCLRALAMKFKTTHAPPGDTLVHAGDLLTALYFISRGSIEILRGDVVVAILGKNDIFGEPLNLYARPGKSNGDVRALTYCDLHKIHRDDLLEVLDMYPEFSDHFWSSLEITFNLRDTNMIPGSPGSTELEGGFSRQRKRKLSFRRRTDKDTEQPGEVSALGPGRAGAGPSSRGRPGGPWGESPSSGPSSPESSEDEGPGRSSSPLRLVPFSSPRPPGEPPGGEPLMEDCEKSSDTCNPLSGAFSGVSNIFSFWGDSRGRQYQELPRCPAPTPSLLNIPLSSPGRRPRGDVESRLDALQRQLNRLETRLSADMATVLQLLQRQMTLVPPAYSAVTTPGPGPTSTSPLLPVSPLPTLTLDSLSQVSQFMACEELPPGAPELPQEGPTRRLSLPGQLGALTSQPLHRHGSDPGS

[20] = physchem; details: aqueous phosphate buffer, pH 7.4
Description: Solubility of the compound in aqueous phosphate buffer at pH 7.4 at 25 degC after 24 hrs

CC(C)c1nc(N2CCN(c3ncc(OCc4ccncc4C#N)cn3)[C@H](C)C2)no1 showed a logP [1] of 1.3, a hepatocyte CLint [2] of 70 µL/min/1e6 cells and a microsomal CLint [3] of 48 µL/min/mg. The Papp A→B [4] was 15 ×10⁻⁶ cm/s, the Papp B→A [5] was 6 ×10⁻⁶ cm/s and the Stability [6] was “Stable”. The Stability [7] was “Stable” and the Stability [8] was “Stable”.

Compound C[C@@H]1CN(c2noc(C(F)(F)F)n2)CCN1c1ncc(OCc2ccncc2C#N)cn1 has a logP [1] of 2.9, a hepatocyte CLint [2] of 42 µL/min/1e6 cells and a microsomal CLint [3] of 28 µL/min/mg. The Papp A→B [4] was 23 ×10⁻⁶ cm/s, the Papp B→A [5] was 6 ×10⁻⁶ cm/s and the Stability [6] was “Unstable”. For the same compound, the Stability [7] was “Unstable”, the Stability [8] was “Unstable” and the half-life at 10 µM [9] was 6.96 h. For the same compound, the half-life at 10 µM [10] was 8.64 h, the half-life at 10 µM [11] was 2.88 h and the half-life at 10 µM [12] was 137 h. For the same compound, the half-life at 10 µM [13] was 214 h and the half-life at 10 µM [14] was 127 h.

With C[C@@H]1CN(c2noc(C(F)F)n2)CCN1c1ncc(OCc2ccncc2C#N)cn1 the logP [1] was 1.4, the Stability [6] was “Stable” and the Stability [7] was “Stable”. The Stability [8] was “Stable” and the logD [15] was 2.8.

For CC(C)c1noc(N2CCN(c3ncc(OCc4ccncc4C#N)cn3)[C@H](C)C2)n1, the hepatocyte CLint [2] was 72 µL/min/1e6 cells, the microsomal CLint [3] was 55 µL/min/mg and the Stability [6] was “Stable”. For the same compound, the Stability [7] was “Stable” and the Stability [8] was “Stable”.

For C[C@@H]1CN(c2nc(C(F)(F)F)no2)CCN1c1ncc(OCc2ccncc2C#N)cn1, the logP [1] was 1.4, the hepatocyte CLint [2] was 52 µL/min/1e6 cells and the microsomal CLint [3] was 40 µL/min/mg. The Papp A→B [4] was 13 ×10⁻⁶ cm/s, the Papp B→A [5] was 6 ×10⁻⁶ cm/s and the Stability [6] was “Stable”. The Stability [7] was “Stable” and the Stability [8] was “Stable”.

CC(C)c1nnc(N2CCN(c3ncc(OCc4ccncc4C#N)cn3)[C@H](C)C2)o1 gave a fraction unbound [16] of 0.071, a fraction unbound [17] of 0.131 and a fraction unbound [18] of 0.087. For the same compound, the IC50 [19] was greater than 28 µM, the logP [1] was -0.5 and the hepatocyte CLint [2] was 63 µL/min/1e6 cells. The microsomal CLint [3] was 47 µL/min/mg, the Papp A→B [4] was 16 ×10⁻⁶ cm/s and the Papp B→A [5] was 13 ×10⁻⁶ cm/s. For the same compound, the Stability [6] was “Stable”, the Stability [7] was “Stable” and the Stability [8] was “Stable”. The logD [15] was 2.6 and the solubility at 24 h [20] was 150 µM (≈ 63.1 µg/mL).

In the case of C[C@@H]1CN(c2nnc(C(F)(F)F)o2)CCN1c1ncc(OCc2ccncc2C#N)cn1, the logP [1] is reported as 0.5, the hepatocyte CLint [2] is reported as 53 µL/min/1e6 cells and the microsomal CLint [3] is reported as 34 µL/min/mg. The Papp A→B [4] was 18 ×10⁻⁶ cm/s, the Papp B→A [5] was 21 ×10⁻⁶ cm/s and the Stability [6] was “Stable”. The Stability [7] was “Stable”, the Stability [8] was “Stable” and the logD [15] was 2.7.
